According to PMC8778187, “A New Oxygen Containing Pyclen-Type Ligand as a Manganese(II) Binder for MRI and ^52Mn PET Applications: Equilibrium, Kinetic, Relaxometric, Structural and Radiochemical Studies” (Molecules, 2022):

Key:
[1] = Stability and protonation constants of Mg(II) complexes by pH-potentiometry; assay type: physicochemical; details: Mg^2+ complex; T = 25 °C, I = 0.15 M NaCl
Procedure: (§1) The stability and protonation constants of the metal complexes formed with H2OPC2A were determined by pH-potentiometric titrations, but, for the Cu(II) complex, UV-Vis spectrophotometric measurements were also carried out to supplement the pH-potentiometric titration data (Figures S21 and S22, Supporting Information).
(§2) Metal stock solutions were prepared from the highest analytical grade chemicals, and their concentrations were determined by complexometric titration with standardized Na2H2EDTA and eriochrome black T indicator in the presence of ascorbic acid, and potassium hydrogen tartrate for MnCl2, murexide indicator for CaCl2 and CuCl2, eriochrome black T for MgCl2 and xylenol orange in the presence of hexamethylenetetramine for the solution of ZnCl2. The concentration of the ligand stock solution was determined by pH-potentiometric titrations. The protonation constants of the ligand were determined by the pH potentiometric titrations with 0.15 M NaOH, using 0.0025 M ligand solutions. The ionic strength was set to 0.15 M by using NaCl. […]
(§3) To avoid the effect of CO2, N2 gas was bubbled through the solutions during the titrations process. […] For the calibration of the pH meter, KH-phtalate (pH = 4.005) and borax (pH = 9.177) buffers were used, and the H^+ ion concentrations were calculated from the measured pH values by applying the method proposed by Irving et al.. […]

[2] = Stability and protonation constants of Ca(II) complexes by pH-potentiometry; assay type: physicochemical; details: Ca^2+ complex; T = 25 °C, I = 0.15 M NaCl
Procedure: as §1, §2, §3

[3] = Ligand protonation constants by pH-potentiometric titration; assay type: physicochemical; details: T = 25 °C, I = 0.15 M NaCl
Procedure: The protonation constants of H2OPC2A have been determined by pH-potentiometry in 0.15 M NaCl ionic medium, and the constants determined are listed in Table 2, along with the corresponding values determined for structurally similar ligands used as comparative benchmarks (H23,9-PC2A, H23,6-PC2A, H21,4-DO2A, H21,7-DO2A, and H21,7-O2DO2A).
as §2, §3

[4] = Stability and protonation constants of Cu(II) complexes by pH-potentiometry and UV-Vis spectrophotometry; assay type: physicochemical; details: Cu^2+ complex, T = 25 °C, I = 0.15 M NaCl
Procedure: as §1
as §2, with “NaCl. The titrated samples (starting volume of 6 mL) were stirred mechanically, and thermostated at 25 °C by a circulating water bath (±0.1 °C).” for “NaCl.”
To avoid the effect of CO2, N2 gas was bubbled through the solutions during the titrations process. […] For the calibration of the pH meter, KH-phtalate (pH = 4.005) and borax (pH = 9.177) buffers were used, and the H^+ ion concentrations were calculated from the measured pH values by applying the method proposed by Irving et al.. A solution of approximately 0.01 M HCl was titrated with a 0.15 M NaOH solution (0.15 or 1.00 M NaCl), and the differences between the measured and calculated pH values (for the points with pH < 2.4) were used to calculate the (H^+) from the pH values measured in the titration experiments. […] The stability constants of the metal complexes (except for Cu(II)) were determined using the direct pH-potentiometric method, by titrating samples with 1:1 metal-to-ligand ratios (the number of fitted data pairs were between 127–212), allowing 1 min for the sample equilibration to occur. […]

[5] = Serum stability in Seronorm followed by r1p relaxation rates; assay type: in vitro ADME, human
Procedure: Serum “stability” of the [Mn(3,9-OPC2A)] chelate: during MRI investigations, the CAs are injected into the vein of the patients and, following their injection, the complexes can meet with different proteins present in the blood serum, which are known to bind the essential metal ions in relatively strong manner. Therefore, the plasma proteins can potentially initiate transmetalation/transchelation reactions, especially in the case of Mn(II) complexes whose thermodynamic stability is lower than the stability of the chelates formed with essential metal ions, such as Zn(II) or Cu(II). What is more, for some Mn(II) complexes, depending upon the stability constants, of course, the Ca(II) ions present at high concentrations in the serum can initiate the dissociation of the complex, as in the case of [Mn(EGTA)]^2^−, [Mn(BAPTA)]^2^−, or [Mn(CaM)], for instance. In nuclear medicine, serum “stability” studies are routinely performed, in order to access the integrity of the chelates in the given competitive media.
The serum stability of the Mn(II) complexes was studied by following the r1p relaxation rates of the complex over time, using 1.0 mM solutions in SeronormTM (Seronorm = commercially available lyophilized human blood serum, Sero, Stasjonsveien, Norway) at pH = 7.43 and 25 °C.

| log KMgL (stability constant of the Mg(II) complex) [1] | log KMnL [2] | log K3^H [3] | Σlog Κ2^H ([3]; log K1^H + log K2^H) | log KMnLOH [4] | log KMnHL ([4]; footnote g) | log KMnL ([4]; footnote g) | time over which the relaxation rate remained constant in Seronorm ([5]; 1.0 mM complex, pH = 7.43, 25 °C, negligible dissociation) | r1p in Seronorm solution ([5]; 1.41 T, 25 °C) [mM⁻¹ s⁻¹] | Compound |
| --- | --- | --- | --- | --- | --- | --- | --- | --- | --- |
| 7.02(1) | 8.27(1) | 2.13(1) | 15.39 | 10.50(5) | 1.92(4) ^g | 18.41(4) ^g |  |  | O=C(O)CN1CCOCCN(CC(=O)O)Cc2cccc(n2)C1 [H23,9-OPC2A, 6-Oxa-3,9,15-triazabicyclo(9.3.1)pentadeca-1(15),11,13-triene-3,9-diacetic acid] |
|  |  |  |  |  |  |  | at least 80 h | 5.09 | O=C([O-])CN1CCOCCN(CC(=O)[O-])Cc2cccc(n2)C1.[Mn+2] [[Mn(3,9-OPC2A)]] |
